Reference: article PMC5218480 (PLoS ONE, 2017)

System: MV-4-11 cells
Experiment: Gene expression microarray analysis (Affymetrix PrimeView) and GSEA
Format: cell-based, human
Parameters: RFU PODN (11730768_x_at) / Fold change /veh PODN (11730768_x_at) / RFU LINC00158 (11744669_a_at) / Fold change /veh LINC00158 (11744669_a_at) / RFU DUSP10 (11751237_a_at) / Fold change /veh DUSP10 (11751237_a_at) / RFU ID3 (11757404_x_at) / Fold change /veh ID3 (11757404_x_at) / RFU PLEKHG5 (11737974_s_at) / Fold change /veh PLEKHG5 (11737974_s_at) / RFU LRRC4B (11730491_at) / Fold change /veh LRRC4B (11730491_at) / RFU GIMAP4 (11747438_a_at) / Fold change /veh GIMAP4 (11747438_a_at) / RFU KRT8 (11758183_x_at) / Fold change /veh KRT8 (11758183_x_at) / RFU CNN1 (11734310_a_at) / Fold change /veh CNN1 (11734310_a_at) / RFU VPS37D (11726825_at) / Fold change /veh VPS37D (11726825_at) / RFU C10orf10 (11716522_x_at) / Fold change /veh C10orf10 (11716522_x_at) / RFU KIR2DL2 /// KIR2DL4 /// KIR2DL5A /// KIR2DL5B /// KIR2DS1 /// KIR2DS2 /// KIR2DS3 /// KIR2DS4 /// KIR3DL3 /// KIR3DL3 /// KIR3DS1 (11738374_at) / Fold change /veh KIR2DL2 /// KIR2DL4 /// KIR2DL5A /// KIR2DL5B /// KIR2DS1 /// KIR2DS2 /// KIR2DS3 /// KIR2DS4 /// KIR3DL3 /// KIR3DL3 /// KIR3DS1 (11738374_at) / RFU C1QL1 (11718748_at) / Fold change /veh C1QL1 (11718748_at) / RFU TMPRSS4 (11747572_a_at) / Fold change /veh TMPRSS4 (11747572_a_at) / RFU HAMP (11756126_x_at) / Fold change /veh HAMP (11756126_x_at) / RFU RNFT2 (11725882_a_at) / Fold change /veh RNFT2 (11725882_a_at) / RFU NR4A2 (11747474_a_at) / Fold change /veh NR4A2 (11747474_a_at) / RFU ABCC12 (11746883_a_at) / Fold change /veh ABCC12 (11746883_a_at) / RFU TMEM136 (11760407_x_at) / Fold change /veh TMEM136 (11760407_x_at) / RFU CLDN22 /// WWC2 (11732394_at) / Fold change /veh CLDN22 /// WWC2 (11732394_at) / RFU HLA-DPB1 (11760878_x_at) / Fold change /veh HLA-DPB1 (11760878_x_at) / RFU SPINT1 (11716480_a_at) / Fold change /veh SPINT1 (11716480_a_at) / RFU GAP43 (11754022_s_at) / Fold change /veh GAP43 (11754022_s_at) / RFU A4GNT (11735810_at) / Fold change /veh A4GNT (11735810_at) / RFU PRB3 (11715151_x_at) / Fold change /veh PRB3 (11715151_x_at) / RFU TUBB4B (11761932_at) / Fold change /veh TUBB4B (11761932_at) / RFU CAPN14 (11732068_a_at) / Fold change /veh CAPN14 (11732068_a_at) / RFU TMCC2 (11721928_a_at) / Fold change /veh TMCC2 (11721928_a_at) / RFU IRGQ (11745062_a_at) / Fold change /veh IRGQ (11745062_a_at) / RFU FAM174B (11720279_a_at) / Fold change /veh FAM174B (11720279_a_at) / RFU TMPRSS4 (11748680_a_at) / Fold change /veh TMPRSS4 (11748680_a_at) / RFU FAM212B (11763350_a_at) / Fold change /veh FAM212B (11763350_a_at) / RFU PLEKHG5 (11743358_a_at) / Fold change /veh PLEKHG5 (11743358_a_at) / RFU ZSCAN30 (11745921_a_at) / Fold change /veh ZSCAN30 (11745921_a_at) / RFU CMKLR1 (11741424_a_at) / Fold change /veh CMKLR1 (11741424_a_at) / RFU LOC101060620 /// MAPK8IP1 (11723275_at) / Fold change /veh LOC101060620 /// MAPK8IP1 (11723275_at) / RFU SPTSSB (11747773_x_at) / Fold change /veh SPTSSB (11747773_x_at) / RFU PRSS12 (11739890_at) / Fold change /veh PRSS12 (11739890_at) / RFU BIN1 (11741810_x_at) / Fold change /veh BIN1 (11741810_x_at) / RFU WNT11 (11732464_a_at) / Fold change /veh WNT11 (11732464_a_at) / RFU C10orf10 (11716521_a_at) / Fold change /veh C10orf10 (11716521_a_at) / RFU C5orf56 (11738089_at) / Fold change /veh C5orf56 (11738089_at) / RFU CYB561 (11721691_x_at) / Fold change /veh CYB561 (11721691_x_at) / RFU ANKRD19P (11752326_a_at) / Fold change /veh ANKRD19P (11752326_a_at) / RFU OR2T12 /// OR2T33 /// OR2T8 (11738714_s_at) / Fold change /veh OR2T12 /// OR2T33 /// OR2T8 (11738714_s_at) / RFU VCAN (11748164_a_at) / Fold change /veh VCAN (11748164_a_at) / RFU JSRP1 (11732532_at) / Fold change /veh JSRP1 (11732532_at) / RFU KRTAP10-11 (11738290_x_at) / Fold change /veh KRTAP10-11 (11738290_x_at) / RFU MYO3A (11730013_a_at) / Fold change /veh MYO3A (11730013_a_at) / RFU EBF3 (11725865_a_at) / Fold change /veh EBF3 (11725865_a_at) / RFU CAMK2N1 (11719241_x_at) / Fold change /veh CAMK2N1 (11719241_x_at) / RFU C5orf56 (11738088_a_at) / Fold change /veh C5orf56 (11738088_a_at) / RFU OLFML3 (11715873_a_at) / Fold change /veh OLFML3 (11715873_a_at) / RFU LOC100653217 /// NTM (11731650_a_at) / Fold change /veh LOC100653217 /// NTM (11731650_a_at) / RFU MAPK11 (11762145_a_at) / Fold change /veh MAPK11 (11762145_a_at) / RFU FIZ1 (11724087_x_at) / Fold change /veh FIZ1 (11724087_x_at) / RFU OASL (11726364_x_at) / Fold change /veh OASL (11726364_x_at) / RFU SOX15 (11748057_x_at) / Fold change /veh SOX15 (11748057_x_at) / RFU CD79A (11719716_a_at) / Fold change /veh CD79A (11719716_a_at) / RFU HIST1H1D (11736915_at) / Fold change /veh HIST1H1D (11736915_at) / RFU CASKIN2 (11723855_a_at) / Fold change /veh CASKIN2 (11723855_a_at) / RFU LOC730098 (11760151_x_at) / Fold change /veh LOC730098 (11760151_x_at) / RFU OR4N2 (11742367_at) / Fold change /veh OR4N2 (11742367_at) / RFU PRRT2 (11749266_a_at) / Fold change /veh PRRT2 (11749266_a_at) / RFU SNX32 (11753110_a_at) / Fold change /veh SNX32 (11753110_a_at) / RFU CDHR5 (11726645_a_at) / Fold change /veh CDHR5 (11726645_a_at) / RFU RCAN1 (11760418_a_at) / Fold change /veh RCAN1 (11760418_a_at) / RFU FAM167A (11723789_a_at) / Fold change /veh FAM167A (11723789_a_at) / RFU FAM26E (11764081_at) / Fold change /veh FAM26E (11764081_at) / RFU ISYNA1 (11749810_s_at) / Fold change /veh ISYNA1 (11749810_s_at) / RFU ACY1 (11761880_at) / Fold change /veh ACY1 (11761880_at) / RFU 11764098_at / Fold change /veh 11764098_at / RFU SAMD14 (11745864_x_at) / Fold change /veh SAMD14 (11745864_x_at) / RFU NPB (11741838_a_at) / Fold change /veh NPB (11741838_a_at) / RFU TMPRSS6 (11731388_a_at) / Fold change /veh TMPRSS6 (11731388_a_at) / RFU KRTAP10-2 (11738614_at) / Fold change /veh KRTAP10-2 (11738614_at) / RFU ARHGAP8 /// PRR5-ARHGAP8 (11727945_x_at) / Fold change /veh ARHGAP8 /// PRR5-ARHGAP8 (11727945_x_at) / RFU KRTAP5-7 /// NADSYN1 (11734609_at) / Fold change /veh KRTAP5-7 /// NADSYN1 (11734609_at) / RFU RASL12 (11751679_a_at) / Fold change /veh RASL12 (11751679_a_at) / RFU CDKN2B (11736163_a_at) / Fold change /veh CDKN2B (11736163_a_at) / RFU PRF1 (11729649_at) / Fold change /veh PRF1 (11729649_at) / RFU, ZNF638 /// ZNF638-IT1 / Fold change vs veh, ZNF638 /// ZNF638-IT1 / RFU, PANK3 / Fold change vs veh, PANK3 / RFU, SH3YL1 / Fold change vs veh, SH3YL1 / RFU, ZEB2 / Fold change vs veh, ZEB2 / RFU, NRIP1 / Fold change vs veh, NRIP1 / RFU, PTTG1IP / Fold change vs veh, PTTG1IP / RFU, CAPN2 / Fold change vs veh, CAPN2 / RFU, MED14 / Fold change vs veh, MED14 / RFU, SNORA58 / Fold change vs veh, SNORA58 / RFU, C1orf63 / Fold change vs veh, C1orf63 / RFU, LRRFIP1 / Fold change vs veh, LRRFIP1 / RFU, NDUFAF7 / Fold change vs veh, NDUFAF7 / RFU, SLC12A2 / Fold change vs veh, SLC12A2 / RFU, IBTK / Fold change vs veh, IBTK / RFU, ESF1 / Fold change vs veh, ESF1 / Fold change vs veh, TMEM50B / RFU, TAOK1 / Fold change vs veh, TAOK1 / RFU, ACBD3 / Fold change vs veh, ACBD3 / RFU, TMA16 / Fold change vs veh, TMA16 / RFU, RWDD3 / Fold change vs veh, RWDD3 / RFU, BCAT1 / Fold change vs veh, BCAT1 / RFU, EDEM3 / Fold change vs veh, EDEM3 / RFU, TMEM33 / Fold change vs veh, TMEM33 / RFU, WDR75 / Fold change vs veh, WDR75 / RFU, AHCTF1 / Fold change vs veh, AHCTF1 / RFU, TFRC / Fold change vs veh, TFRC / RFU, ZDHHC17 / Fold change vs veh, ZDHHC17 / RFU, NOM1 / Fold change vs veh, NOM1 / RFU, ARL8B / Fold change vs veh, ARL8B / RFU, ZBTB11 / Fold change vs veh, ZBTB11 / RFU, TAMM41 / Fold change vs veh, TAMM41 / RFU, KIAA1704 /// LOC100996395 / Fold change vs veh, KIAA1704 /// LOC100996395 / RFU, ING1 / Fold change vs veh, ING1 / RFU, TRMT61B / Fold change vs veh, TRMT61B / RFU, FUBP3 / Fold change vs veh, FUBP3 / RFU, TP53 / Fold change vs veh, TP53 / RFU, TNKS2 / Fold change vs veh, TNKS2 / RFU, ZFP14 / Fold change vs veh, ZFP14 / RFU, ACTR2 / Fold change vs veh, ACTR2 / RFU, PPP3R1 / Fold change vs veh, PPP3R1 / RFU, PIK3R1 / Fold change vs veh, PIK3R1 / RFU, HNRNPA1 / Fold change vs veh, HNRNPA1 / RFU, RNF170 / Fold change vs veh, RNF170 / RFU, ZNF28 / Fold change vs veh, ZNF28 / RFU, RNGTT / Fold change vs veh, RNGTT / RFU, OGT / Fold change vs veh, OGT / RFU, BRD1 / Fold change vs veh, BRD1 / RFU, MARS / Fold change vs veh, MARS / RFU, ZNF655 / Fold change vs veh, ZNF655 / RFU, FAHD1 / Fold change vs veh, FAHD1 / RFU, BDP1 / Fold change vs veh, BDP1 / RFU, LRRCC1 / Fold change vs veh, LRRCC1 / RFU, ARID1A / Fold change vs veh, ARID1A / RFU, ZNF146 / Fold change vs veh, ZNF146 / RFU, ZNF330 / Fold change vs veh, ZNF330 / RFU, GPN3 / Fold change vs veh, GPN3 / RFU, C9orf123 / Fold change vs veh, C9orf123 / RFU, N4BP2L2 / Fold change vs veh, N4BP2L2 / RFU, ARFIP1 / Fold change vs veh, ARFIP1 / RFU, FAM179B / Fold change vs veh, FAM179B / RFU, BCL10 / Fold change vs veh, BCL10 / RFU, UHRF1BP1L / Fold change vs veh, UHRF1BP1L / RFU, BET1 / Fold change vs veh, BET1 / RFU, CNOT2 / Fold change vs veh, CNOT2 / RFU, ZNF268 / Fold change vs veh, ZNF268 / Fold change vs veh, ZNF507 / RFU, DGCR2 / Fold change vs veh, DGCR2 / RFU, WDSUB1 / Fold change vs veh, WDSUB1 / Fold change vs veh, HSP90B1 /// MIR3652 / RFU, ADSS / Fold change vs veh, ADSS / RFU, GK / Fold change vs veh, GK / RFU, ZNF148 / Fold change vs veh, ZNF148 / RFU, TAF9 / Fold change vs veh, TAF9 / RFU, SLC1A5 / Fold change vs veh, SLC1A5 / RFU, SLMO2 / Fold change vs veh, SLMO2 / RFU, ABCC4 / Fold change vs veh, ABCC4 / RFU, LOC101060439 /// RAP1B / Fold change vs veh, LOC101060439 /// RAP1B / RFU, RFX7 / Fold change vs veh, RFX7 / RFU, GTPBP10 / Fold change vs veh, GTPBP10 / RFU, CNEP1R1 / Fold change vs veh, CNEP1R1 / RFU, BIVM-ERCC5 /// ERCC5 / Fold change vs veh, BIVM-ERCC5 /// ERCC5 / RFU, ILF3 / Fold change vs veh, ILF3 / RFU 11762660_at / Fold change /veh 11762660_at / RFU VCAN (11757783_s_at) / Fold change /veh VCAN (11757783_s_at) / RFU DDX43 (11728927_at) / Fold change /veh DDX43 (11728927_at) / RFU KRT8 (11758188_x_at) / Fold change /veh KRT8 (11758188_x_at) / RFU NKD1 (11759106_at) / Fold change /veh NKD1 (11759106_at) / RFU SRD5A1 (11742802_a_at) / Fold change /veh SRD5A1 (11742802_a_at) / RFU TPSAB1 /// TPSB2 (11721975_s_at) / Fold change /veh TPSAB1 /// TPSB2 (11721975_s_at) / RFU GSTM3 (11746129_a_at) / Fold change /veh GSTM3 (11746129_a_at) / RFU IL23R (11737362_x_at) / Fold change /veh IL23R (11737362_x_at) / RFU TMEM51 (11727254_a_at) / Fold change /veh TMEM51 (11727254_a_at) / RFU PIWIL2 (11732686_x_at) / Fold change /veh PIWIL2 (11732686_x_at) / RFU ORM1 (11744905_x_at) / Fold change /veh ORM1 (11744905_x_at) / RFU CCDC152 (11743942_at) / Fold change /veh CCDC152 (11743942_at) / RFU ECM1 (11717891_a_at) / Fold change /veh ECM1 (11717891_a_at) / RFU IL23R (11748794_a_at) / Fold change /veh IL23R (11748794_a_at) / RFU TNFAIP8L3 (11732012_x_at) / Fold change /veh TNFAIP8L3 (11732012_x_at) / RFU MBOAT4 (11741988_at) / Fold change /veh MBOAT4 (11741988_at) / RFU 11764193_at / Fold change /veh 11764193_at / RFU TMEM53 (11763286_at) / Fold change /veh TMEM53 (11763286_at) / RFU MAGEB2 (11727129_at) / Fold change /veh MAGEB2 (11727129_at) / RFU TMEM200A (11744735_a_at) / Fold change /veh TMEM200A (11744735_a_at) / RFU CCDC152 (11751479_a_at) / Fold change /veh CCDC152 (11751479_a_at) / RFU FAM211A (11726209_a_at) / Fold change /veh FAM211A (11726209_a_at) / RFU RGS16 (11746705_a_at) / Fold change /veh RGS16 (11746705_a_at) / RFU VCAN (11755009_s_at) / Fold change /veh VCAN (11755009_s_at) / RFU RHOB (11743442_s_at) / Fold change /veh RHOB (11743442_s_at) / RFU RGS16 (11720943_a_at) / Fold change /veh RGS16 (11720943_a_at) / RFU RGS16 (11720944_at) / Fold change /veh RGS16 (11720944_at) / RFU, VPS4B / Fold change vs veh, VPS4B / RFU, CREB1 / Fold change vs veh, CREB1 / RFU, DNAJC13 / Fold change vs veh, DNAJC13 / RFU, GNAQ / Fold change vs veh, GNAQ / RFU, CDK5R1 / Fold change vs veh, CDK5R1 / RFU, ZRANB3 / Fold change vs veh, ZRANB3 / RFU, CUL4A / Fold change vs veh, CUL4A / RFU, CCNY / Fold change vs veh, CCNY / RFU, UFL1 / Fold change vs veh, UFL1 / RFU, COG3 / Fold change vs veh, COG3 / RFU, DIAPH2 / Fold change vs veh, DIAPH2 / RFU, SKA2 / Fold change vs veh, SKA2 / RFU, AFF3 / Fold change vs veh, AFF3 / RFU, LMF1 / Fold change vs veh, LMF1 / RFU, IPO11 / Fold change vs veh, IPO11 / RFU, DFFB / Fold change vs veh, DFFB / RFU, FOXP1 / Fold change vs veh, FOXP1 / RFU, CARD8 / Fold change vs veh, CARD8 / RFU, STRN3 / Fold change vs veh, STRN3 / RFU, ADK / Fold change vs veh, ADK / RFU, RASSF2 / Fold change vs veh, RASSF2 / RFU, WIPF1 / Fold change vs veh, WIPF1 / RFU, LARP1B / Fold change vs veh, LARP1B / RFU, RASA1 / Fold change vs veh, RASA1 / RFU, RB1 / Fold change vs veh, RB1 / RFU, PPFIA1 / Fold change vs veh, PPFIA1 / RFU, MAT2A / Fold change vs veh, MAT2A / RFU, CCT5 / Fold change vs veh, CCT5 / RFU, WDR92 / Fold change vs veh, WDR92 / RFU, CUX1 / Fold change vs veh, CUX1 / RFU, TTC7A / Fold change vs veh, TTC7A / RFU, TMEM135 / Fold change vs veh, TMEM135 / RFU, DEPTOR / Fold change vs veh, DEPTOR / RFU, CPM / Fold change vs veh, CPM / RFU, DNAJB6 / Fold change vs veh, DNAJB6 / RFU, CACNA2D3 / Fold change vs veh, CACNA2D3 / RFU, DTX4 / Fold change vs veh, DTX4 / RFU, TFCP2 / Fold change vs veh, TFCP2 / RFU, GMCL1 /// GMCL1P1 / Fold change vs veh, GMCL1 /// GMCL1P1 / RFU, AEBP2 / Fold change vs veh, AEBP2 / RFU, SNHG1 /// SNORD22 /// SNORD25 /// SNORD26 /// SNORD27 /// SNORD28 /// SNORD29 /// SNORD31 / Fold change vs veh, SNHG1 /// SNORD22 /// SNORD25 /// SNORD26 /// SNORD27 /// SNORD28 /// SNORD29 /// SNORD31 / Fold change (Aza/veh), C12orf56 (ProbeSet 11735607_a_at) / Fold change (ACY-1035/veh), C12orf56 (ProbeSet 11735607_a_at) / Fold change (Aza/veh), FGFR1OP (ProbeSet 11751329_s_at) / Fold change (ACY-1035/veh), FGFR1OP (ProbeSet 11751329_s_at) / Fold change (Aza/veh), VPS36 (ProbeSet 11739960_a_at) / Fold change (ACY-1035/veh), VPS36 (ProbeSet 11739960_a_at) / RFU SYPL1 (11715823_x_at) / Fold change /veh SYPL1 (11715823_x_at) / RFU IGFBP7 (11715501_s_at) / Fold change /veh IGFBP7 (11715501_s_at) / RFU REEP3 (11722064_at) / Fold change /veh REEP3 (11722064_at) / RFU IGLL1 (11728026_x_at) / Fold change /veh IGLL1 (11728026_x_at): dose or concentration left out as unconfirmed
Conditions: MV-4-11 cells, 48 hours

Question: For Nc1ccc(-c2cccs2)cc1NC(=O)c1ccc2c(c1)cc(C1CC1)n2CCN1CCOCC1 [ACY-1035], which “RFU KRTAP10-11 (11738290_x_at)” value is on record?
Answer: 38.61 RFU
